Measured values published in paper PMC12246139 (Scientific Reports, 2025).
Several values for one entry are separate records, joined by “and”; a condition that tells them apart may be missing. Equal values may be shown once. Read-outs that look alike come from different tables or passages of the source.

What was measured:
KRAS(G12C/H95L) [1] = molecular target: T1, KRAS(G12C/H95L) (Homo sapiens, UniProt P01116, G12C/H95L); assay: biochemical; assay type: binding; conditions: 20 nM KRAS(G12C/H95L), 1 M urea, 120 min at room temperature; read-out: Chemical stability IC50
Procedure: (§1) Nucleotide exchange inhibition was monitored in an assay with 10 nM KRAS and 5 nM SOS^cat, utilizing Eu^3+-GTP TRL-signal protection upon KRAS binding according to QRET principle. […] (d) Overview of the assay results presented in (a–c) and Figs. S17, S19–S20.
(§2) In these assays, no external protein (SOS^cat) is used and only KRAS and inhibitors are present. First, we conducted a chemical stability assay by utilizing the FRET-Probe technique. In this system, time dependent KRAS (20 nM) denaturation is monitored in 1 M urea solution after KRAS preincubation with varying inhibitor concentration. […] In this assay, we observed an exceptionally high stability increase with both inhibitors (Fig. 5d; Fig. S17).
(§3) FRET-Probe chemical stability assays[69] were performed in triplicates in an assay buffer containing 10 mM HEPES (pH 7.5), 10 mM NaCl, and 0.01% (v/v) Brij-30 (with or without 0.2 mM MgCl2) and destabilizing detection buffer with 10 mM HEPES (pH 7.5), 1 M urea, and 0.01% (v/v) Brij-30. […] Thereafter, 16 μL of the 1 × FRET-Probe was added in destabilizing detection buffer and TR-FRET signal was monitored multiple times during 120 min incubation (parameters as in thermal stability assay). All concentrations are informed in a final 20 μL reaction volume in white 384-well low volume plates (Corning, USA). IC50 values were obtained by blotting the signals obtained with different inhibitor concentrations at the selected time point against the inhibitor concentration and using standard sigmoidal fitting functions from Origin 2016 software.

KRAS(G12C) [2] = molecular target: T2, KRAS(G12C) (Homo sapiens, UniProt P01116, G12C); assay: biochemical; assay type: binding; conditions: 20 nM KRAS(G12C), 1 M urea, 120 min at room temperature; read-out: Chemical stability IC50
Procedure: as §1, §2, §3

KRAS(G12C/Y96D) [3] = molecular target: T3, KRAS(G12C/Y96D) (Homo sapiens, UniProt P01116, G12C/Y96D); assay: biochemical; assay type: binding; conditions: 20 nM KRAS(G12C/Y96D), 1 M urea, 120 min at room temperature; read-out: Chemical stability IC50
Procedure: as §1, §2, §3

KRAS(WT) [4] = molecular target: T4, KRAS(WT) (Homo sapiens, UniProt P01116); assay: biochemical; conditions: 10 nM KRAS(WT), 5 nM SOScat, 15 min preincubation; read-out: Nucleotide exchange IC50
Procedure: Our results imply that both inhibitors are highly dependent on their covalent interaction to G12C for efficient and potent RAS inhibition.
(§4) Nucleotide exchange assays using the QRET principle[63]–[65],[68] were performed in assay buffer containing 20 mM HEPES (pH 7.5) 1 mM MgCl2, 10 mM NaCl, 0.01% (v/v) Triton X-100. […] Thereafter, 6 μL of detection solution (3.5 μM MT2 and 10 nM Eu^3+-GTP) was added and reaction was initiated with 5 nM SOS^cat added in 3 μL volume. TRL-signals were monitored using Tecan Spark 20 M from Tecan Life Sciences (Männedorf, Switzerland) by using 340 and 620 nm excitation and emission wavelengths and 800 and 400 μs delay and decay time, respectively. All concentrations are informed in a final 15 μL reaction volume in white 384-well low volume plates (Corning, USA). IC50 values were obtained using standard sigmoidal fitting functions from Origin 2016 software (Origin Lab, Northampton, MA).
with 10 nM KRAS(WT) and 5 nM SOScat, utilizing Eu3+-GTP (10 nM) TRL-signal protection upon
KRAS binding according to QRET principle.
(§5) (1 picture or pasted object on this page, not shown here)

KRAS(G12C/H95L) [5] = molecular target: T1, KRAS(G12C/H95L); assay: biochemical; conditions: 10 nM KRAS(G12C/H95L), 5 nM SOScat, 15 min preincubation; read-out: Nucleotide exchange IC50
Source text: (§6) First, we performed a traditional nucleotide exchange assay using a single-label quenching resonance energy transfer (QRET) principle[63]–[65] and non-labeled full-length KRAS(G12C), (G12C/H95L), and (G12C/Y96D). The selection of the two double mutants was based on the observed interactions in the MD simulations (Figs. 2, 3), and the fact that acquired resistance with SII-P inhibitors is associated with these mutations, as clinically observed for sotorasib and adagrasib[66]–[68].
as §1, §4

KRAS(G12C/Y96D) [6] = molecular target: T3, KRAS(G12C/Y96D); assay: biochemical; conditions: 10 nM KRAS(G12C/Y96D), 5 nM SOScat, 15 min preincubation; read-out: Nucleotide exchange IC50
Source text: as §6, §1, §4

KRAS(WT) [7] = molecular target: T4, KRAS(WT); assay: FRET-Probe thermal stability assay; assay type: binding; design: full-length KRAS(G12C), KRAS(G12C/H95L), KRAS(G12C/Y96D) and KRAS(WT); host or cells: E. coli
Procedure: (§7) FRET-Probe thermal stability assays[69] were conducted in triplicates in an assay buffer containing 10 mM HEPES (pH 7.5), 10 mM NaCl, 0.5 mM MgCl2, and 0.01% (v/v) Brij-30. Assay was also performed in an assay buffer without MgCl2. […] Thereafter, 8 μL of the 1 × FRET-Probe was added, and signals were monitored using step-by-step protocol by heating from 34–96 °C using 2 °C steps and heating the sample 1.5 min at each step prior measurement using 340 and 665 nm excitation and emission wavelengths and 50 and 200 μs delay and decay time, respectively. Thermal heating was performed with a PTC-100 Programmable Thermal Controller (MJ Research, Inc., Watertown, MA). All concentrations are informed in a final 20 μL reaction volume in white 96-well PCR-plate (BioRad, USA). Tm values were obtained using standard sigmoidal fitting functions from Origin 2016 software. […]
TR-FRET signals from the triplicate reactions were monitored for every 2 °C, up to 96 °C. Normalized thermal curves with or without MgCl2 (0.2 mM) are shown in A and C, and the same data is presented as TR-FRET signals in B and D, respectively.
as §5

NRAS(G12C) = NRAS(G12C) (Homo sapiens, UniProt P01111, G12C); assay: biochemical; conditions: 10 nM NRAS(G12C), 5 nM SOScat, 15 min preincubation; read-out: Nucleotide exchange IC50
Procedure: as §1
(§8) SII-P inhibitor activities can differ among RAS isoforms (KRAS/HRAS/NRAS). These isoforms differ only in position 95 in the SII-P (Fig. S18).
as §4

HRAS(G12C) = HRAS(G12C) (Homo sapiens, UniProt P01112, G12C); assay: biochemical; conditions: 10 nM HRAS(G12C), 5 nM SOScat, 15 min preincubation; read-out: Nucleotide exchange IC50
Procedure: as §1, §8, §4

KRAS(G12C) [8] = molecular target: T2, KRAS(G12C); assay: FRET-Probe thermal stability assay; assay type: binding
Procedure: as §2, §7
heating with the FRET-Probe. KRAS(G12C) was preincubated 15 min prior the thermal ramping, in […]
which the TR-FRET signals from the triplicate reactions were monitored for every 2 °C, up to 96 °C.
Normalized thermal curves with or without MgCl2 (0.2 mM) are shown in A and C, and the same data […]
is presented as TR-FRET signals in B and D, respectively.
as §5

KRAS(G12C) [9] = molecular target: T2, KRAS(G12C); assay: biochemical; conditions: 10 nM KRAS(G12C), 5 nM SOScat, 15 min preincubation; read-out: Nucleotide exchange IC50

NRAS(G12C), sequence (P01111 1-169 G12C): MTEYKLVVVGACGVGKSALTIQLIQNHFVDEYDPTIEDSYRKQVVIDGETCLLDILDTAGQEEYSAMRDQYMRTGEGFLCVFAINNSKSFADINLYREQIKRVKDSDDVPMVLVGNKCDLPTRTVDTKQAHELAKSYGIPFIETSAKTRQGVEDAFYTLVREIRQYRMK
HRAS(G12C), sequence (P01112 1-169 G12C): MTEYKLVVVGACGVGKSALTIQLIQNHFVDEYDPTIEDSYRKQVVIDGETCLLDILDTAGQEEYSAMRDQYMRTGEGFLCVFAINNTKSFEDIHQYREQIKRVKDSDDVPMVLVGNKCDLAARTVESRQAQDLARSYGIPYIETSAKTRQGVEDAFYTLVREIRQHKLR

## C=CC(=O)N1CCN(c2nc(OC[C@@H]3CCCN3C)nc3c(F)c(-c4nc(N)cc(C)c4C(F)(F)F)c(Cl)cc23)[C@@H](C)C1 [GDC-6036, divarasib]
KRAS(G12C/H95L) [1]
  IC50: 15 ± 3.4 nM
KRAS(G12C) [2]
  IC50: 5.9 ± 0.9 nM
KRAS(G12C/Y96D) [3]
  IC50: 106 ± 6 nM
KRAS(WT) [4]
  IC50: 291 ± 23 nM
KRAS(G12C/H95L) [5]
  IC50: 12 ± 3 nM
KRAS(G12C/Y96D) [6]
  IC50: 229 ± 59 nM
KRAS(WT) [7]; 20 nM KRAS(WT), 10,000 nM inhibitor, first value (footnote f), one of the with / without Mg2+ conditions, read-out: Thermal stability ΔTm
  ΔTm at 10 µM: 5.2 °C
KRAS(WT) [7]; 20 nM KRAS(WT), 10,000 nM inhibitor, second value (footnote g), the other of the with / without Mg2+ conditions, read-out: Thermal stability ΔTm
  ΔTm at 10 µM: 5.5 °C
NRAS(G12C)
  IC50: 29.8 ± 2.35 nM
HRAS(G12C)
  IC50: 32.9 ± 2.2 nM
KRAS(G12C) [8]; 20 nM KRAS(G12C), 50 nM inhibitor, first value (footnote c), one of the with / without Mg2+ conditions, read-out: Thermal stability ΔTm
  ΔTm at 0.05 µM: 23.7 °C
KRAS(G12C) [8]; 20 nM KRAS(G12C), 50 nM inhibitor, second value (footnote d), the other of the with / without Mg2+ conditions, read-out: Thermal stability ΔTm
  ΔTm at 0.05 µM: 32.5 °C

## C=CC(=O)N1CCN2C(=O)c3cc(F)c(-c4ccc(F)c5sc(N)c(C#N)c45)c(Cl)c3OCC[C@H]2C1 [LY3537982, olomorasib]
KRAS(G12C) [9]
  IC50: 0.956 ± 0.3 nM
KRAS(G12C/H95L) [1]
  IC50: 0.345 nM and 0.35 nM
KRAS(G12C) [2]
  IC50: 0.368 nM and 0.37 nM
KRAS(G12C/Y96D) [3]
  IC50: 1.6 ± 0.1 nM
KRAS(WT) [4]
  IC50: 343 ± 23 nM
KRAS(G12C/H95L) [5]
  IC50: 0.121 nM and 0.12 nM
KRAS(G12C/Y96D) [6]
  IC50: 2.8 ± 0.8 nM
KRAS(WT) [7]; read-out: Thermal stability ΔTm, 20 nM KRAS(WT), 10,000 nM inhibitor, first value (footnote f), one of the with / without Mg2+ conditions
  ΔTm at 10 µM: 5.1 °C
KRAS(WT) [7]; read-out: Thermal stability ΔTm, 20 nM KRAS(WT), 10,000 nM inhibitor, second value (footnote g), the other of the with / without Mg2+ conditions
  ΔTm at 10 µM: 4.9 °C
NRAS(G12C)
  IC50: 0.16 ± 0.013 nM
HRAS(G12C)
  IC50: 0.48 ± 0.042 nM
KRAS(G12C) [8]; read-out: Thermal stability ΔTm, 20 nM KRAS(G12C), 50 nM inhibitor, first value (footnote c), one of the with / without Mg2+ conditions
  ΔTm at 0.05 µM: 20.5 °C
KRAS(G12C) [8]; read-out: Thermal stability ΔTm, 20 nM KRAS(G12C), 50 nM inhibitor, second value (footnote d), the other of the with / without Mg2+ conditions
  ΔTm at 0.05 µM: 30.4 °C
